Data as given in paper PMC10780165 (Molecules, 2023).
Structures can show the parent of a compound that is named as a salt. Where two headings read alike, the source gives them in different places. Marks after values point to notes of the source that are not given here.

How the values were obtained:
AChE = settings: cited from earlier work
eqBChE [1] = target: T1, eqBChE (Equus caballus, UniProt P81908); settings: same conditions, cited from earlier work
T1 construct: BChE (equine serum BChE (eqBChE)); purchased Sigma-Aldrich (Shanghai, PRC); host or cells: equine serum

eqBChE [2] = target: T1, eqBChE; settings: same conditions, cited from earlier work; remark: listed apart in the source
BChE = settings: cited from earlier work
[3] = target: T2, elAChE (electric eel AChE) (Electrophorus electricus, UniProt O42275); settings: after pre-incubation with the enzyme for 60 min; read-out: elAChE IC50 Mean ± SD; cited from earlier work
T2 construct: purchased Sigma-Aldrich (Shanghai, PRC)

[4] = target: T2, elAChE (electric eel AChE); assay: biochemical
Procedure: (§1) The inhibitory activities of the synthesized compounds on ChEs were evaluated utilizing elAChE and eqBChE.
(§2) The ChE inhibition abilities of the compounds were determined using a modified version of Ellman’s assay. All the experiments were conducted in 96-well plates, and the readings were obtained using an EnSpire Multimode 2300 plate reader (Perkin Elmer, MA, USA) or a multimode microplate reader (Berthold Technologies). elAChE, eqBChE, S-acetylthiocholine iodide (ATCh), S-butyrylthiocholine iodide (BTCh) and 5-5′-dithiobis (2-nitrobenzoic) acid (DTNB) were purchased from Sigma-Aldrich (Shanghai, PRC). ATCh and BTCh stock solutions were freshly prepared in water. A stock solution of DTNB (Ellman’s reagent) was prepared fresh in a sodium phosphate buffer (100 mM, pH 7, 0.15% NaHCO3 w/v). Stock solutions of drugs were prepared in a solution of acetonitrile and water (v:v = 1:9). The pH for the measurements was 8.
(§3) First, 25 μL aliquots of drug solutions at different concentrations were added to 200 μL of elAChE (0.04 U/mL) or eqBChE (0.1 U/mL) in a phosphate buffer (100 mM sodium phosphate buffer, pH 8), and the reaction system was pre-incubated at 37 °C for determined time periods. Then, 25 μL of a solution containing ATCh or BTCh (2.5 mM) and DTNB (3.4 mM) in the 100 mM sodium phosphate buffer was added to the reactions. Enzyme activity (vi) was determined by measuring the absorbance (412 nm) at 37 °C for 5 min. […] A sample containing phosphate buffer (pH 8) in place of the enzyme was analyzed for each drug concentration to account for the spontaneous conversion of the substrate into a product, and the values obtained were subtracted from each measured activity.
(§4) This method was based on the general measurement of ChE activity. […] The measurements were repeated three times for each concentration.

[5] = target: T3, eqBChE (equine serum BChE) (Equus caballus, UniProt P81908); assay: Modified Ellman's assay, IC50 for eqBChE; format: biochemical; settings: for fold less effective eqBChE inhibitor than the meta-position derivative: para- vs meta-position carbamate: MTR-13 vs MTR-1, MTR-14 vs MTR-2, MTR-15 vs MTR-3
T3 construct: BChE (equine serum BChE (eqBChE)); purchased Sigma-Aldrich (Shanghai, PRC); host or cells: equine serum
Procedure: as §1, §2, §3, §4

eqBChE [6] = target: T1, eqBChE; assay: Decarbamylation rate constant k3 of carbamylated eqBChE; format: biochemical, equine
eqBChE [7] = target: T1, eqBChE; assay: Kinetic study of eqBChE inhibition, carbamylation rate constant kI; format: biochemical, equine; settings: pre-incubation 1-45 min, seven concentrations, read-out: kI, second-order carbamylation rate constant, Mean ± SD (converted)
Procedure: as §3

[8] = elAChE IC50 Mean ± SD, after pre-incubation with the enzyme for 60 min, 37 °C, pH 8
[9] = after pre-incubation with the enzyme for 60 min, 37 °C, pH 8, read-out: eqBChE IC50 Mean ± SD
[10] = after pre-incubation with the enzyme for 60 min, 37 °C, pH 8, read-out: elAChE IC50 Mean ± SD

T3 sequence (P81908 whole entry): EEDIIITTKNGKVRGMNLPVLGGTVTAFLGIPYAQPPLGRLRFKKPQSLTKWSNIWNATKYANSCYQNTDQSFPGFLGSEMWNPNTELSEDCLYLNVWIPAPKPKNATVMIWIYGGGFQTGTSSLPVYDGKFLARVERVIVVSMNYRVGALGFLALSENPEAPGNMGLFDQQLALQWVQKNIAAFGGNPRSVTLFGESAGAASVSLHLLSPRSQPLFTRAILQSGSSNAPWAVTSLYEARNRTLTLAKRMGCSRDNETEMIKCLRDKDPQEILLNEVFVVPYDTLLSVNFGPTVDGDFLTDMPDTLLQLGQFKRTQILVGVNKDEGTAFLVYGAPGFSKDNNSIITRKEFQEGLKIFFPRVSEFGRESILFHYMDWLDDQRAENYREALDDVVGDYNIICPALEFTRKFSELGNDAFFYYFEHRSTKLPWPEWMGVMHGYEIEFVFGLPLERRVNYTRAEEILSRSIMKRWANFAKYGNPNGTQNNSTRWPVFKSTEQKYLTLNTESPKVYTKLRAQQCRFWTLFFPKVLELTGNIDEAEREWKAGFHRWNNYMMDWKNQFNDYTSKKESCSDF
T1 sequence (P81908 whole entry): as above
T2 sequence (O42275 24-633): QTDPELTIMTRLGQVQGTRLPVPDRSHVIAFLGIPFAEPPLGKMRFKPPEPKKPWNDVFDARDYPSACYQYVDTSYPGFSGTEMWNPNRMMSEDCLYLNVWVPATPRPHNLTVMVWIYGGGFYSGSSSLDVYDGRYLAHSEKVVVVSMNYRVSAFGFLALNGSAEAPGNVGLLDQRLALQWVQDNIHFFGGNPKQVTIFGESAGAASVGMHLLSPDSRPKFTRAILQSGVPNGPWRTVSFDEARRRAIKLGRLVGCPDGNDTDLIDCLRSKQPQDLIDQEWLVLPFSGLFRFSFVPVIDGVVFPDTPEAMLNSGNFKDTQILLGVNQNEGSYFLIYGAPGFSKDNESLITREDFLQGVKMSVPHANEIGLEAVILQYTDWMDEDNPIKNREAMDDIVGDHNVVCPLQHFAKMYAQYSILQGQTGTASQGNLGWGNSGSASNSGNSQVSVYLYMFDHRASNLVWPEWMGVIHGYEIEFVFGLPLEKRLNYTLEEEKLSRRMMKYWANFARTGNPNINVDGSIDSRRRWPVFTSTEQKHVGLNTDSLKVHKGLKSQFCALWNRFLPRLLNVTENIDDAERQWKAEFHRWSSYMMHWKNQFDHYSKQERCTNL

SMILES | IC50 [5, 9] | IC50 [4, 10] | further results
CN(C)C(=O)Oc1cc(OC(=O)N(C)C)cc(C(O)CNC(C)(C)C)c1 (stereo not shown) [Bambuterol] |  |  | IC50 (AChE): 30000 nM; k3, decarbamylation rate constant, Mean ± SD (eqBChE [1]; listed as bambuterol): 0.0839 ± 0.0028 h⁻¹; k3, decarbamylation rate constant, Mean ± SD (eqBChE [1]): 0.0839 ± 0.0028 ^a ×h^−1; kI (kI1), carbamylation rate constant, Mean ± SD (eqBChE [2]; listed as bambuterol): 1.44 ± 0.02 ×10^5 M^−1 min^−1; kI (kI1), carbamylation rate constant, Mean ± SD (eqBChE [2]): 1.44 ± 0.02 ^a ×10^5 M^−1 min^−1; IC50 (BChE): 3 nM; IC50 [3]: > 100000 nM
CCN(C)C(=O)Oc1cccc(C(O)CNC(C)(C)C)c1 (stereo not shown) [MTR-1, 3-(2-(Tert-butylamino)-1-hydroxyethyl)phenyl ethyl(methyl)carbamate Hydrochloride] | 370 ± 20 nM |  | IC50 [4, 8]: > 100000 nM
CCN(C)C(=O)Oc1cccc(C(O)CNC(C)(C)CC)c1 (stereo not shown) [MTR-2, 3-(1-Hydroxy-2-(tert-pentylamino)ethyl)phenyl Ethyl(methyl)carbamate hydrochloride] | 170 ± 10 nM |  | IC50 [4, 8]: > 100000 nM
CCN(C)C(=O)Oc1cccc(C(O)CN2CCCCC2)c1 (stereo not shown) [MTR-3, 3-(1-Hydroxy-2-(piperidin-1-yl)ethyl)phenyl Ethyl(methyl)carbamate] |  | > 100000 nM | IC50 ([4]; read-out: IC50(AChE)): > 100000 nM; nature of BChE inhibition (eqBChE [6]; activity recovery after dilution): pseudo-irreversible; k3, decarbamylation rate constant, Mean ± SD (eqBChE [6]; eqBChE, N-methyl-N-ethyl-carbamylated, dilution 1:300, 37 °C, pH 8): 0.0093 ± 0.0010 h⁻¹; IC50 ([5]; as printed in nM in abstract and text, read-out: IC50(BChE)): 78 nM; kinact/KI (eqBChE [7]): 4630 M⁻¹ s⁻¹
CCN(C)C(=O)Oc1cccc(C(O)CNC2CCCCC2)c1 (stereo not shown) [MTR-4, 3-(2-(Cyclohexylamino)-1-hydroxyethyl)phenyl Ethyl(methyl)carbamate] | 9 ± 0.4 nM | 79000 ± 4000 nM | 
CCN(C)C(=O)Oc1cccc(C(O)CNC2CCCC2)c1 (stereo not shown) [MTR-5, 3-(2-(Cyclopentylamino)-1-hydroxyethyl)phenyl Ethyl(methyl)carbamate] | 74 ± 5 nM | 92000 ± 7000 nM | 
CCN(C)C(=O)Oc1cccc(C(O)CN2CCOCC2)c1 (stereo not shown) [MTR-6, 3-(1-Hydroxy-2-morpholinoethyl)phenyl Ethyl(methyl)carbamate] | 2500 ± 200 nM | > 100000 nM | 
CCN(C)C(=O)Oc1cccc(C(O)CN2CCCC2)c1 (stereo not shown) [MTR-7, 3-(1-Hydroxy-2-(pyrrolidin-1-yl)ethyl)phenyl Ethyl(methyl)carbamate] | 210 ± 10 nM | 78900 ± 900 nM | 
CCN(C)C(=O)Oc1cccc(C(O)CNc2ccccc2)c1 (stereo not shown) [MTR-8, 3-(1-Hydroxy-2-(phenylamino)ethyl)phenyl Ethyl(methyl)carbamate] | 320 ± 20 nM | > 100000 nM | 
CCN(C)C(=O)Oc1cccc(C(O)CNc2ccc(I)cc2)c1 (stereo not shown) [MTR-9, 3-(1-Hydroxy-2-((4-iodophenyl)amino)ethyl)phenyl Ethyl(methyl)carbamate] | 1730 ± 50 nM | > 100000 nM | 
CCN(C)C(=O)Oc1cccc(C(O)CNc2ccc(F)cc2)c1 (stereo not shown) [MTR-10, 3-(2-((4-Fluorophenyl)amino)-1-hydroxyethyl)phenyl Ethyl(methyl)carbamate] | 192 ± 7 nM | > 100000 nM | 
CCN(C)C(=O)Oc1cccc(C(O)CNC(C)(C)c2ccccc2)c1 (stereo not shown) [MTR-11, 3-(1-Hydroxy-2-((2-phenylpropan-2-yl)amino)ethyl)phenyl Ethyl(methyl)carbamate] | 323 ± 8 nM | > 100000 nM | 
C#Cc1cccc(NCC(O)c2cccc(OC(=O)N(C)CC)c2)c1 (stereo not shown) [MTR-12, 3-(2-((3-Ethynylphenyl)amino)-1-hydroxyethyl)phenyl Ethyl(methyl)carbamate] | 156 ± 7 nM | > 100000 nM | 
CCN(C)C(=O)Oc1ccc(C(O)CNC(C)(C)C)cc1 (stereo not shown) [MTR-13, 4-(2-(Tert-butylamino)-1-hydroxyethyl)phenyl Ethyl(methyl)carbamate] | 8700 ± 300 nM | > 100000 nM | fold less effective eqBChE inhibitor than the meta-position derivative [5]: 22 fold
CCN(C)C(=O)Oc1ccc(C(O)CNC(C)(C)CC)cc1 (stereo not shown) [MTR-14, 4-(1-Hydroxy-2-(tert-pentylamino)ethyl)phenyl Ethyl(methyl)carbamate] | 1700 ± 100 nM | > 100000 nM | fold less effective eqBChE inhibitor than the meta-position derivative [5]: ninefold
CCN(C)C(=O)Oc1ccc(C(O)CN2CCCCC2)cc1 (stereo not shown) [MTR-15, 4-(1-Hydroxy-2-(piperidin-1-yl)ethyl)phenyl Ethyl(methyl)carbamate] | 420 ± 20 nM | 59000 ± 16000 nM | 
